In PubChem BioAssay (NCI):
“And” between values parts separate entries of the source, which are not always exact repeats. Equal entries are not always repeated.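 1) Cells in 96-well plates. 2) Compound, 48 h, 5 concentrations. 3) Linear interpolation between surrounding doses. 4) Unreached endpoint = highest concentration. Abbreviation: GI50, concentration required for 50% inhibition of growth. The concentration for full growth arrest is given as TGI.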

Experiments:
Experiment in all cases: NCI anticancer screen, dose series, 48 h
OVCAR-5 ovarian = tested on: OVCAR-5 ovarian
SR leukemia = tested on: SR leukemia
RPMI-8226 leukemia = tested on: RPMI-8226 leukemia
M14 melanoma = tested on: M14 melanoma
SK-OV-3 ovarian = tested on: SK-OV-3 ovarian
HCT-116 colon = tested on: HCT-116 colon
RXF 393 renal = tested on: RXF 393 renal
UACC-257 melanoma = tested on: UACC-257 melanoma
NCI-H460 lung = tested on: NCI-H460 lung
KM12 colon = tested on: KM12 colon

Structure (SMILES)	GI50 (OVCAR-5 ovarian)	TGI (OVCAR-5 ovarian)	GI50 (SR leukemia)	TGI (SR leukemia)	GI50 (RPMI-8226 leukemia)	TGI (RPMI-8226 leukemia)	GI50 (M14 melanoma)	TGI (M14 melanoma)	GI50 (SK-OV-3 ovarian)	TGI (SK-OV-3 ovarian)	GI50 (HCT-116 colon)	TGI (HCT-116 colon)	GI50 (RXF 393 renal)	TGI (RXF 393 renal)	GI50 (UACC-257 melanoma)	TGI (UACC-257 melanoma)	GI50 (NCI-H460 lung)	TGI (NCI-H460 lung)	GI50 (KM12 colon)	TGI (KM12 colon)
COc1cccc(/C=N/[N-]C(=O)c2ccncc2)c1[O-].COc1cccc(/C=N/[N-]C(=O)c2ccncc2)c1[O-].[O]=[U](=[O])([OH2+])[OH2+]	6.79 µM	> 100 µM	3.37 µM	> 100 µM	4.4 µM	48 µM	5.47 µM	> 61.4 µM	12.2 µM	73.2 µM	4.8 µM	> 100 µM	6.11 µM	25.3 µM	4.73 µM	> 54.4 µM	3.46 µM	> 40.3 µM	36.3 µM	> 100 µM
COC(=O)C1=COC(C)C2CN3CCc4c([nH]c5ccccc45)C3CC12 (configuration not stated)		> 100 µM	12.6 µM and 27.8 µM	39.2 µM and > 100 µM	14.6 µM and 69 µM	56 µM and > 100 µM	38.4 µM and > 100 µM	> 100 µM		> 100 µM	19 µM and > 100 µM	45.4 µM and > 100 µM	17.3 µM and > 100 µM	69.9 µM and > 100 µM	34.2 µM and > 100 µM	> 100 µM	24 µM and > 100 µM	58.8 µM and > 100 µM	17.8 µM and > 100 µM	42.6 µM and > 100 µM
CC(C)c1[nH]nc2c1N=C(c1ccccc1Cl)c1cc([N+](=O)[O-])ccc1N2	12.2 µM	> 25 µM	1.51 µM	10 µM	8.85 µM	> 22.6 µM	7.63 µM	> 25 µM	10.1 µM	> 25 µM	4.35 µM	> 25 µM	3.64 µM	8.45 µM	10.1 µM	> 25 µM	5.77 µM	15.9 µM	1.79 µM	6.31 µM
O=C(Nc1cc(Cl)ccc1O)c1ccc(Nc2ccnc(C(F)(F)F)c2)cc1	3.61 µM	> 100 µM	2.52 µM	9.84 µM	1.25 µM	3.83 µM	3.56 µM	54.1 µM	2.32 µM	7.11 µM	2.9 µM	60.8 µM	5.71 µM	> 100 µM	3.53 µM	> 100 µM	2.49 µM	6.91 µM	3.19 µM	18.8 µM
O=C(Nc1cc(Nc2ncccc2-c2ncnc3nc[nH]c23)ccc1F)c1cc(C(F)(F)F)cc(C(F)(F)F)c1	0.868 µM	2.98 µM	2.09 µM	5.67 µM	2.12 µM	6.4 µM	0.33 µM	1.6 µM	2.78 µM	9.19 µM	0.601 µM	2.72 µM	1.91 µM	4.62 µM	0.474 µM	> 10 µM	1.98 µM	5.31 µM	1.53 µM	4.03 µM
Cn1c(=O)c2c(nc(C(=N)SCC(=O)O)n2C)n(C)c1=O		> 100 µM		80.2 µM		> 100 µM		> 100 µM		> 100 µM		> 100 µM		> 100 µM		> 100 µM		> 100 µM		> 100 µM
N#CC(=Nc1ccccc1N(C(=O)c1ccccc1)C(=O)c1ccccc1)c1ccccc1		> 100 µM		24.2 µM		> 81.4 µM		> 100 µM		> 100 µM		> 44.8 µM		> 39.3 µM		> 100 µM		> 100 µM		> 70.9 µM
Cc1cc(N/N=C/c2ccccn2)nc2ccccc12	0.542 µM	18.5 µM	0.308 µM	5 µM	0.41 µM	12.5 µM	0.413 µM	5.62 µM	0.668 µM	16 µM	0.393 µM	5.81 µM	0.321 µM	4.87 µM	0.395 µM	5.02 µM	0.349 µM	11.6 µM	0.508 µM	14.9 µM
O=C1Nc2ccccc2/C1=C1\CCc2cc(O)ccc21	16.1 µM	> 25 µM	4.25 µM	> 25 µM	9.71 µM	> 25 µM	7.18 µM	> 25 µM	8.5 µM	> 25 µM	8.79 µM	> 25 µM	9.85 µM	> 25 µM	9.47 µM	> 25 µM	8.7 µM	> 25 µM	1.01 µM	> 25 µM
COc1cc2c(/C=N\N=C(N)N)c[nH]c2cc1C	21.4 µM	64 µM	16.5 µM	30.1 µM	14.3 µM	27.4 µM	15.1 µM	28.3 µM	25.8 µM	62.2 µM	14.6 µM	27.7 µM	62.1 µM	> 100 µM	36.8 µM	> 100 µM	14.7 µM	27.8 µM	14.9 µM	28 µM
COc1ccc(/C(C)=C(\c2ccc(OCCN3CCCCCC3)cc2)c2ccc(OC(=O)C3CCCCC3)cc2)cc1	1.41 µM	3.44 µM	0.291 µM	1.07 µM	0.55 µM	2.23 µM	0.416 µM	1.3 µM	1.7 µM	3.96 µM	0.638 µM	2.47 µM	0.704 µM	2.6 µM	0.575 µM	2.07 µM	0.592 µM	2.1 µM	0.854 µM	3.27 µM
COc1ccc(-c2nccn2-c2ccc(OC)cc2)cc1	25 µM	> 100 µM	0.64 µM	30.8 µM	13.4 µM	36.6 µM	20.5 µM	56.7 µM	22.8 µM	93.6 µM	16.4 µM	44.4 µM	17.9 µM	> 80.5 µM	26 µM	> 88 µM	17.9 µM	60.7 µM	17.9 µM	65.3 µM
c1ccc2c(c1)[nH]c1c2cc[n+]2cc3c(cc12)CCCC3	3.87 µM	17.9 µM and 13.6 µM	2.51 µM	7.52 µM and 4.19 µM	2.16 µM	6.28 µM and 3.73 µM	3.01 µM	14 µM and 7.29 µM		14.2 µM and 14.4 µM	3.3 µM	14.2 µM and 4.66 µM	2.98 µM	12.5 µM	2.09 µM	6.83 µM and 25.6 µM	1.66 µM	4.54 µM and 3.22 µM	2.3 µM	9.85 µM and 6.53 µM
